Reference: article PMC9546084, “Effects of Unsuppressed Endogenous Insulin on Pharmacokinetics and/or Pharmacodynamics of Study Insulin in the Healthy: A Retrospective Study” (Clinical Pharmacology in Drug Development, 2022)

Experiments:
[1] = PK corrected by C-peptide; cited from earlier work
Protocol: In studies in which specific assays for the tested insulin are lacking, C‐peptide was always used to correct endogenous insulin.[37], [38] Some researchers[39] still doubted the use of C‐peptide to correct endogenous insulin because some PK parameters were not consistent (eg, a peak of glargine in plasma occurring at 12 hours[40] differs from those observed in subjects with type 1 diabetes where the increase occurs between ≈3 and 6 hours after the first injection[41] and at steady state[42]). Owens[19] reported the exogenous insulin estimated from C‐peptide was nearly the same as what was true ...

[2] = manual euglycemic clamp, glucose infusion rate (PD) after subcutaneous insulin aspart; format: in vivo, healthy Chinese male volunteers; conditions: for GIRmax (maximum glucose infusion rate): 0.2 IU/kg NovoRapid s.c., 8-hour manual euglycemic clamp; for GIRmax (maximum glucose infusion rate) / tGIRmax (time of GIRmax) / AUCGIR,0-8h: mean ± SD; for GIR AUC from time 0.5 to 2 hours after correction for clamped glucose from 0.5 to 2 hours / AUCGIR,0-8h after correction for the overall clamped glucose / tGIRmax (time of GIRmax) / AUCGIR,0-8h: 0.2 IU/kg s.c.; for AUCGIR,0-8h after correction for the overall clamped glucose: analysis of variance with clamped glucose as covariate; for AUCGIR,0-8h: uncorrected
Protocol: (§1) From 3 days before the dosing day on, participants were instructed to abstain from drinking alcohol, smoking tobacco, engaging in strenuous exercise, and ingesting caffeine. Participants came to the research center at approximately 6:00 PM the day before drug administration to ensure an overnight fasting condition of 10 to 12 hours the next morning. Throughout the clamp, the subjects remained fasting and in a supine position. A 20‐gauge polyethylene cannula was inserted into an antecubital vein for infusion of 20% dextrose, and a second 18‐gauge catheter was inserted retrogradely into a wrist vein on the dorsum of the hand to draw blood. The hand for blood drawing was maintained continuously in a heated blanket at 55 to 65°C, allowing sampling of arterialized venous blood. After recording the basal blood glucose level (defined as the mean of the glucose measurement at −30, −20, and −10 minutes), the subjects received a 0.2 IU/kg dose of NovoRapid (Novo Nordisk, Bagsværd, Denmark) by subcutaneous injection into a lifted abdominal skin fold. Blood samples were obtained at the bedside for immediate determination of whole blood glucose concentrations every 5 minutes from 0 to 240 minutes and every 10 minutes from 240 to 480 minutes. During the manual euglycemic clamp procedure, the glucose infusion rate (GIR) was adjusted on the basis of the obtained glucose measurements to maintain euglycemia. A 4‐mL blood sample was collected at each of the following points for analysis of C‐peptide, human insulin, and IAsp levels: −30 and 0 minutes (before dosing) and 10, 20, 30, 40, 50, 60, 90, 120, 150, 180, 210, 240, 270, 300, 360, 420, and 480 minutes after dosing. The baselines for each of C‐peptide, human insulin, and IAsp were defined as the mean of the −30 and 0 minute (before dosing) measurements.
(§2) Whole blood glucose concentrations were tested with a glucose analyzer (Biosen C_line GP+, Neckar Healthcare, Co., Ltd., Magdeburg, Germany) using an automated glucose oxidase technique with a measuring range of 9 to 900 mg/dL and a high precision of 1.5%. Human insulin levels were determined using an ultrasensitive enzyme‐linked immunosorbent assay (ELISA) with monoclonal antibodies that have little or no cross‐reactivity to insulin analogs whose ranges of quantification were 0.0065 to 0.87 ng/mL for human insulin.[22] C‐peptide levels were analyzed using a solid‐phase 2‐site ELISA method based on the direct sandwich technique in which 2 monoclonal antibodies are directed against separate antigenic determinants on the C‐peptide molecule with a measuring range of 0.06 to 9 ng/mL, with an intra‐assay coefficient of variation of 2.87% to 4.50%.[23] IAsp concentrations were assessed by means of an ultra‐performance liquid chromatography–tandem mass spectrometry method, [25] at Covance Laboratories in Shanghai that had no detectable cross‐reactivity with human insulin. Solid‐phase extraction was performed. Liquid chromatography separation was achieved using an Acquity UPLC CSH C18+ column (50 × 2.1 × 1.7 μm; Waters Corp., Milford, Massachusetts). A 20‐μL injection with a 0.60 mL/min flow of water with 0.1% of acetic acid (solvent A) and acetonitrile with 0.1% of acetic acid (solvent B) was used. The gradient elution was as follows: the initial 17.5% B was increased to 29.5% over 3.0 minutes, 29.5% to 50.0% over 0.5 minutes, 50% to 98% over 0.5 minutes, remained at 98% for 1.5 minutes, and returned to initial conditions over 0.5 minute. A mass spectrometer used in the positive ionization mode (ESI+) was used for the analysis of the compounds. […] The cone voltage and collision energy were adjusted to maximize the intensity of the protonated ion and to optimize the signal of aspart insulin: m/z 1133.4→971.8 and for the internal standard bovine insulin 1123.5→963.8. The lower limit of quantification was 0.2 ng/mL, the inter‐ and intravariability were 7.0% and 7.9%, respectively. […]

[3] = pharmacokinetics of insulin aspart during the euglycemic clamp (UPLC-MS/MS); format: in vivo, healthy Chinese male volunteers; conditions: 0.2 IU/kg s.c., mean ± SD; for CIAsp,max (maximum plasma concentration of IAsp): UPLC-MS/MS
Protocol: as §1, §2

[4] = adverse reactions/events during clamp and follow-up; format: in vivo, healthy Chinese male volunteers; conditions: 33 healthy men; 0.2 IU/kg s.c.; clamp procedures and follow-up period
Text: Thirty‐three healthy male volunteers (22 in group A and 11 in group B) undergoing a manual euglycemic clamp study were enrolled in this study.

Row | Substance | time of peak of glargine in plasma [1] [h] | GIRmax (maximum glucose infusion rate) ([2]; group A ((CPpostdosing)max > CPbaseline, n = 22)) [mg/kg/min] | GIR AUC from time 0.5 to 2 hours after correction for clamped glucose from 0.5 to 2 hours ([2]; group A (n = 22)) [mg/kg] | AUCGIR,0-8h after correction for the overall clamped glucose ([2]; group A (n = 22)) [mg/kg] | tGIRmax (time of GIRmax) ([2]; group A (n = 22)) [min] | AUCGIR,0-8h ([2]; group A (n = 22)) [mg/kg] | GIRmax (maximum glucose infusion rate) ([2]; group B ((CPpostdosing)max ≤ CPbaseline, n = 11)) [mg/kg/min] | GIR AUC from time 0.5 to 2 hours after correction for clamped glucose from 0.5 to 2 hours ([2]; group B (n = 11)) [mg/kg] | AUCGIR,0-8h after correction for the overall clamped glucose ([2]; group B (n = 11)) [mg/kg] | tGIRmax (time of GIRmax) ([2]; group B (n = 11)) [min] | AUCGIR,0-8h ([2]; group B (n = 11)) [mg/kg] | CIAsp,max (maximum plasma concentration of IAsp) ([3]; group A (n = 22)) [ng/mL] | AUCIAsp,0-8h ([3]; group A (n = 22)) [ng·min/mL] | time of CIAsp,max ([3]; group A (n = 22)) [min] | CIAsp,max (maximum plasma concentration of IAsp) ([3]; group B (n = 11)) [ng/mL] | AUCIAsp,0-8h ([3]; group B (n = 11)) [ng·min/mL] | time of CIAsp,max ([3]; group B (n = 11)) [min] | adverse reaction after injection [4]
1 | glargine | 12 | – | – | – | – | – | – | – | – | – | – | – | – | – | – | – | – | –
2 | insulin aspart [IAsp] | – | 8.46 ± 2.43 | 596 ± 38 | 1789 ± 107 | 111 ± 40.6 | 1815 ± 551 | 7.90 ± 1.68 | 520 ± 56 | 1380 ± 157 | 113 ± 33.9 | 1327 ± 306 | 4.72 ± 1.46 | 527 ± 97.1 | 44.8 ± 11.0 | 5.53 ± 1.61 | 543 ± 97.2 | 47.3 ± 11.0 | no adverse reaction in any subject
